One assay has as its system CD64. Put plainly: FcγR (CD16, CD32, CD64) expression on re-polarized M0, M2a and M2b macrophages by flow cytometry. Format: cell-based, human. The note with it: overnight stimulation with the agent, FIG. 4. From the text:
Heparinized whole blood was obtained from normal healthy human donors (Biological Specialty Corporation) and informed consent was obtained from all donors. Peripheral blood mononuclear cells (PBMCs) were isolated over Ficoll-Paque Plus density gradient (GE Healthcare) and CD14+ monocytes were isolated from PBMCs by positive selection using CD14 antibody-coated MicroBead separation (Miltenyi Biotec). Monocytes were differentiated into macrophages by culturing for at least 10 days in X-Vivo-15 media (Lonza) supplemented with 20 ng/mL M-CSF (PeproTech). Macrophages were washed and were polarized into M0, M2a, and M2b by culturing one day with 20 ng/mL M-CSF, 20 ng/mL IL-4 (PeproTech) or 50 ug/mL heat aggregated human gamma globulin (HAGG) and 20 ng/mL IL-1β (PeproTech), respectively. One day following polarization, polarization media was washed off, and cells were treated with 20 ng/mL IFN-γ (Peprotech), 1000 U/mL IFNa2a (PBL Assay Science), 20 ng/mL IL-10 (PeproTech), 10 ug/mL Poly (I:C) (InvivoGen), 1 ug/mL LPS (MDBiosciences), 1 ug/mL R848 (InvivoGen), or 10 ug/mL ODN2395 CpG (InvivoGen) overnight. On the next day, macrophages were harvested using enzyme-free cell dissociation buffer (ThermoFisher) for analysis of CD16, CD32 and CD64 expression. Macrophages were blocked with human Fc receptor binding inhibitor (ebioscience) and were stained with Near-IR LIVE/DEAD fixable dead cell stain (Invitrogen), FITC-conjugated anti-CD16 (Clone CB16), FITC-conjugated anti-CD32 (Clone FL18.26) and V450-conjugated anti-CD64 (Clone 10.1) in three independent cocktails. Cells were washed and resuspended in stabilizing fixative (BD Biosciences), and data was acquired on a FACSVerse flow cytometry machine, and data was analyzed using FlowJo software (Treestar Inc.). Macrophages were identified as live, single cells. Doublets were excluded by SSC-W and SSC-H discrimination.
On the technique in general: Flow cytometry measures light scatter and fluorescence of single cells or particles in a stream.

For assay [1], the system named is M0, M2a and M2b macrophages. As to the kind of experiment: Phagocytic response to SIRPaFc after re-polarization of M0, M2a and M2b macrophages. Format: cell-based, human. As to conditions: overnight treatment with the agent; FIGS. 3A-3C. From the text: Heparinized whole blood was obtained from normal healthy human donors (Biological Specialty Corporation) and informed consent was obtained from all donors. Peripheral blood mononuclear cells (PBMCs) were isolated over Ficoll-Paque Plus density gradient (GE Healthcare) and CD14+ monocytes were isolated from PBMCs by positive selection using CD14 antibody-coated MicroBead separation (Miltenyi Biotec). Monocytes were differentiated into macrophages by culturing for at least 10 days in X-Vivo-15 media (Lonza) supplemented with 20 ng/mL M-CSF (PeproTech). Macrophages were washed and were polarized into M0, M2a, and M2b by culturing one day with 20 ng/mL M-CSF, 20 ng/mL IL-4 (PeproTech) or 50 ug/mL heat aggregated human gamma globulin (HAGG) and 20 ng/mL IL-1β (PeproTech), respectively. One day following polarization, polarization media was washed off, and cells were treated with 20 ng/mL IFN-γ (PeproTech), 1000 U/mL IFNα2a (PBL Assay Science), 20 ng/mL IL-10 (PeproTech), 10 ug/mL Poly (I:C) (InvivoGen), 1 ug/mL LPS (MDBiosciences), 1 ug/mL R848 (InvivoGen), or 10 ug/mL ODN2395 CpG (InvivoGen) overnight. On the next day, macrophages were harvested using enzyme-free cell dissociation buffer (ThermoFisher) for flow-based phagocytosis assay. Human B cell lymphoma cell line, Toledo, was labeled with Violet Proliferation Dye 450 (BD Biosciences) and added to repolarized macrophages in a round-bottom non-tissue culture treated 96-well plate at a 1:5 effector:target ratio. […] Cells were acquired on a FACSVerse flow cytometer, and data was analyzed using FlowJo software (Treestar Inc.). Macrophages were identified as live, single, CD14+CD11b+ cells. Doublets were excluded by SSC-W and SSC-H discrimination. Phagocytosis was assessed as the % of macrophages that were VPD450+. Statistical significance was calculated by unpaired t-test vs isotype control using GraphPad Prism software.

The subject of the next assay is red blood cells. Put plainly: Binding to red blood cells.
Another assay has as its target CD47 (Homo sapiens, UniProt Q08722). As to the kind of experiment: CD47 agonism upon binding.
For assay [2], the system named is cancer cells that present with a CD47+ phenotype. The note with it: described in WO2014/094122; cited from earlier work.
For assay [3], the system named is Human B cell lymphoma cell line, Toledo. As to the kind of experiment: Flow-based phagocytosis assay: polarized human monocyte-derived macrophages co-cultured with Toledo tumor cells. Format: cell-based. As to conditions: 1 uM SIRPaFc, FIG. 1. The source says:
Heparinized whole blood was obtained from normal healthy human donors (Biological Specialty Corporation) and informed consent was obtained from all donors. Peripheral blood mononuclear cells (PBMCs) were isolated over Ficoll-Paque Plus density gradient (GE Healthcare) and CD14+ monocytes were isolated from PBMCs by positive selection using CD14 antibody-coated MicroBead separation (Miltenyi Biotec). Monocytes were differentiated into macrophages by culturing for at least 10 days in X-Vivo-15 media (Lonza) supplemented with 20 ng/mL M-CSF (PeproTech). One day prior to the phagocytosis assay the monocyte-derived macrophages were either left untreated in M-CSF media (M0) or treated overnight with 20 ng/mL M-CSF and 300 ng/mL interferon-gamma (IFN-γ) (PeproTech) as M1, 50 ng/mL IFN-γ and 50 ng/mL LPS (MD Biosciences) as M1+LPS, 20 ng/mL IL-4 (PeproTech) as M2a, 20 ng/mL IL-1β (PeproTech) and 50 ug/mL heat aggregated human IgG (HAGG) as M2b or 20 ng/mL IL-10 (PeproTech) and 20 ng/mL TGF (PeproTech) as M2c. […] Cells were acquired on a FACSVerse flow cytometer, and data was analyzed using FlowJo software (Treestar Inc.). […] Doublets were excluded by SSC-W and SSC-H discrimination. % Phagocytosis was assessed as the % of macrophages that were VPD450+. Statistical significance was calculated by unpaired t-test vs isotype control using GraphPad Prism software, where p***<0.001.

Entries after “also recorded” stand apart in the source; their conditions may differ.

CD47, sequence (Q08722 19-323): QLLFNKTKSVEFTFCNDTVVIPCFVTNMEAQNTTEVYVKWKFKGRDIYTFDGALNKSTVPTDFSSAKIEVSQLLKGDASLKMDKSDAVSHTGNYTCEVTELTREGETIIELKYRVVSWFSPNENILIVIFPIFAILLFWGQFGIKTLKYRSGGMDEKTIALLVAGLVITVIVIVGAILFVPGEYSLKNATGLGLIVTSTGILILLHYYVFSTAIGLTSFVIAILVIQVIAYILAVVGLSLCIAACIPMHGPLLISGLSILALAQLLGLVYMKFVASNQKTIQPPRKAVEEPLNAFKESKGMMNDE

Regarding “polyinosine-polycytidylic acid [Poly (I:C), reference compound]”, the “expression of CD64 on M0, M2a and M2b macrophages after repolarization” value (shortened to “expression of CD64 on M0”) in the assay with CD64 was “increased”. The “responsiveness to SIRPaFc (phagocytosis of Toledo cells) of M0, M2a and M2b macrophages after repolarization” value (shortened to “responsiveness to SIRPaFc”) in assay [1] is given as “increased”.
For IFNα [reference compound], the “expression of CD64 on M0” value was “increased” with CD64 and “most striking” in the assay on CD64 (listed as IFN-alpha). Moreover, in assay [1], the “responsiveness to SIRPaFc” value is reported as “increased”.
With “SIRPaFc: human SIRPaFc comprising the V region of human SIRPa variant 2 fused to a wild type human IgG1 Fc region, SEQ ID NO: 3”, the “binding to red blood cells” value in the assay with red blood cells is reported as “negligible binding”. The “CD47 agonism when binding thereto” value with CD47 was “negligible CD47 agonism”. Also, the “effects on the viability of CD47+ cancer cells” value in assay [2] is “dramatic effects”. In assay [3] (M0, M1, M1+LPS, M2a, M2b, M2c macrophages from human PBMC, vs control Fc), the “phagocytosis of DLBCL Toledo cell line by all 6 macrophage subsets” value is “increased phagocytosis”. Also, the “SIRPαFc induced phagocytosis by M1 (+/−LPS) and M2c MDMs compared to M0, M2a and M2b subsets” value in assay [3] (Toledo cells) is given as “superior”.

B1: IFNγ: interferon-gamma (PeproTech), macrophage stimulating cytokine (protein, UniProt P01579 24-161, looked up)
Interferon gamma: QDPYVKEAENLKKYFNAGHSDVADNGTLFLGILKNWKEESDRKIMQSQIVSFYFKLFKNFKDDQSIQKSVETIKEDMNVKFFNSNKKKRDDFEKLTNYSVTDLNVQRKAIHELIQVMAELSPAAKTGKRKRSQMLFRG
On to B1, for which, in the assay on CD64, the “expression of CD64 on M0” value is “increased”. The “responsiveness to SIRPaFc” value in assay [1] was “increased”.

B2: IL-10: interleukin-10 (PeproTech), macrophage stimulating cytokine (protein, UniProt P22301 19-178, looked up)
Interleukin-10: SPGQGTQSENSCTHFPGNLPNMLRDLRDAFSRVKTFFQMKDQLDNLLLKESLLEDFKGYLGCQALSEMIQFYLEEVMPQAENQDPDIKAHVNSLGENLKTLRLRLRRCHRFLPCENKSKAVEQVKNAFNKLQEKGIYKAMSEFDIFINYIEAYMTMKIRN
On to B2, for which the “expression of CD64 on M0” value with CD64 is “increased; also recorded: most striking”. The “responsiveness to SIRPaFc” value in assay [1] was “increased”.

The record behind these values is US20190091290A1, “MACROPHAGE STIMULATION IN CD47 BLOCKADE THERAPY” (TRILLIUM THERAPEUTICS INC., priority 2016, published 2019).
